Data from US20200215153A1, “CANCER TREATMENT AND/OR PREVENTION THROUGH REGULATION OF UBIQUITINATION” (Academia Sinica, priority 2018, published 2020).

How the values were obtained:
[1] = system: Hs578T orthotopic breast tumors; assay: BIKDD gene therapy model: orthotopic Hs578T tumors, intratumoral VISA-BIKDD plus STF-083010; type: in vivo, nude mice
Description: (§1) All mice were maintained according to the guidelines of animal ethical regulations, and all animal studies were approved by the Experimental Animal Committee, Academia Sinica. […] Seven days later, DMSO or STF-083010 (40 mg/kg) was intraperitoneally administrated every 3 days. […] Twenty-eight days later, DMSO or STF-083010 (40 mg/kg) was intraperitoneally administrated every 3-4 days. […] For both models, tumors were measured every 3 or 4 days, and their volumes were calculated using the equation: mm^3=[…]×length(mm)×(width(mm))^2.

cleaved PARP = assay: Western blot analysis of cleaved PARP in TNBC cells; type: cell-based; details: TNBC cells transfected with CMV-BIKDD, 100 μM STF-083010, 36 h; FIG. 7b
Description: (§2) FIG. 7. […] (a, c) MTT assay for the viability of indicated TNBC cells transfected with […] CMV-BIKDD (a) or VISA-BIKDD (c) and treated with 10 or 100 μM STF-083010 for 48 h. CI values are indicated. (b) Western blot analysis of cleaved PARP in indicated TNBC cells transfected with CMV-BIKDD and treated with 100 μM STF-083010 for 36 h. […] Tumor volume were measured at indicated days and plotted. Data are mean±s.d., *P<0.05; ***P<0.001 by two-way ANOVA with Turkey's post test, n=5. Tumors were surgically removed at day 49 and their sizes are shown on the right. (e) Mice orthotopically implanted with Hs578T cells and treated with VISA-BIKDD lipid nanoparticle together with STF-083010 or DMSO starting at day 28 after tumor cell implantation (see Materials and Methods). Tumor volume were measured at indicated days and plotted. Data are mean±s.d., ***P<0.001 by two-way ANOVA with Turkey's post test, n=5. Tumors were surgically removed at day 66 and their sizes are shown on the right.
Cell extraction was performed with RIPA lysis buffer containing 50 mM Tris (pH 8.0), 0.15 M NaCl, 1% NP40, 1% sodium deoxycholate, 0.1% SDS, 1 mM PMSF, 1 µg/ml aprotinin, and 1 µg/ml leupeptin. Western blot was performed with the standard protocol. […] Immunoprecipitation was performed and analyzed as previously described. […] The beads were washed with RIPA lysis buffer and the bound proteins were analyzed by Western blot.

[2] = system: Hs578T orthotopic breast tumors; assay: Orthotopic Hs578T tumor model, cells expressing BIKDD or control vector, treated with STF-083010; type: in vivo, nude mice
Description: as §1

BIKDD = BIKDD levels in TNBC cell lines treated with IRE1α inhibitor; type: cell-based; details: TNBC cell lines Hs578T, MDA-MB157 and MDA-MB468
Description: (§3) Cell extraction was performed with RIPA lysis buffer containing 50 mM Tris (pH 8.0), 0.15 M NaCl, 1% NP40, 1% sodium deoxycholate, 0.1% SDS, 1 mM PMSF, 1 µg/ml aprotinin, and 1 µg/ml leupeptin. Western blot was performed with the standard protocol. For an efficient detection of BIK by Western blot, Tricine-SDS-PAGE was used. Western blot analyses of other proteins were performed with Glycine-SDS-PAGE. Immunoprecipitation was performed and analyzed as previously described. Briefly, cell lysates were incubated with primary antibody for overnight. The Pure Proteome Protein A/G Magnetic Beads (LSKMAGA/G10, EMD Millipore) were then added into cell lysates and incubated for 1.5 h. The beads were washed with RIPA lysis buffer and the bound proteins were analyzed by Western blot.

[3] = system: TNBC cells (Hs578T, MDA-MB157, MDA-MB468); assay: MTT assay for viability of TNBC cells transfected with BIKDD and treated with IRE1α inhibitor; type: cell-based; details: 10 or 100 μM STF-083010, 48 h
Description: as §2
MDA-MB157 and MDA-MB 468 cells were seeded at a density of 5×10^3 cells and Hs578T cells were at 2×10^3 cells in 96-well plates. Cells were transfected with BIKDD. In the next day, cells were treated with IRE1α inhibitor or DMSO for 48 h and then with 0.4 mg/ml methylthiazolyldiphenyltetrazolium bromide (MTT) (Sigma) for 2 h. Cells were dissolved in DMSO, followed by absorbance measurement at 590 nm. The combination index (CI) was calculated using the equation: CI=CA/IC50A+CB/IC50B. CA and CB represent the concentrations of the two agents for combined treatment. IC50A and IC50B are the IC50 values for each single treatment, which were determined by treating cells with various dosages of each agent followed by MTT assay. (CI<1) indicates a synergistic effect, (CI>1) corresponds to an antagonistic effect, and (CI=1) represents an additive effect.

BIK [4] = assay: Analysis of endogenous BIK ubiquitination in 293T cells; type: cell-based; details: FIG. 4c
Description: (§4) FIG. 4. ER stress stimulates BIK ubiquitination and degradation through ASB11 and p97. (a) Western blot analysis of BIK and ASB11 levels in 293T cells treated with 10 μg/ml tunicamycin or 200 nM of thapsigargin for 16 h. (b) Western blot analysis of BIK levels in 293T cells treated with 10 μg/ml tunicamycin for 12 h and then with 50 μg/ml cycloheximide for indicated time periods. The relative amounts of BIK are indicated on the bottom. (c, e) Analysis of endogenous (c) or exogenous (e) BIK ubiquitination in 293T cells (c) or 293T derivatives as in FIG. 2d (e) transfected with indicated constructs and treated with tunicamycin. (d) Western blot analysis of 293T derivatives as in FIG. 2d treated with 10 μg/ml tunicamycin for 16 h. (f) Western blot analysis of BIK levels in 293T derivatives co-treated with 10 μg/ml tunicamycin and MG132 for 16 h. (g) Western blot analysis of BIK expression in 293T cells co-treated with tunicamycin and 10 μM CB-5083 for 16 h. (h, i) Western blot analysis of BIK expression in 293T cells stably expressing indicated shRNAs and treated with 10 μg/ml tunicamycin for 16 h. The knockdown efficiency of each shRNA is shown on the right. (j) Immunoprecipitation analysis of p97 interaction with ubiquitinated BIK in 293T cells treated with 10 μg/ml tunicamycin for 16 h. […]

ASB11 = assay: Western blot analysis of ASB11 protein expression under ER stress; type: cell-based; details: multiple cell lines; 10 μg/ml tunicamycin or 200 nM thapsigargin, 16 h; FIG. 4a
Description: as §4, with “h.” for “h. (h, i) Western blot analysis of BIK expression in 293T cells stably expressing indicated shRNAs and treated with 10 μg/ml tunicamycin for 16 h. The knockdown efficiency of each shRNA is shown on the right. (j) Immunoprecipitation analysis of p97 interaction with ubiquitinated BIK in 293T cells treated with 10 μg/ml tunicamycin for 16 h.”
(§5) Cell extraction was performed with RIPA lysis buffer containing 50 mM Tris (pH 8.0), 0.15 M NaCl, 1% NP40, 1% sodium deoxycholate, 0.1% SDS, 1 mM PMSF, 1 µg/ml aprotinin, and 1 µg/ml leupeptin. […] Immunoprecipitation was performed and analyzed as previously described. […] The beads were washed with RIPA lysis buffer and the bound proteins were analyzed by Western blot.

ASB11 mRNA = assay: RT-qPCR analysis of ASB11 mRNA level under ER stress; type: cell-based; details: 293T, MDA-MB157 and MDA-MB468 cells; 16 h; FIG. 3a
Description: FIG. 3. ER stress induces ASB11 transcription through XBP1. (a, b) RT-qPCR analysis of ASB11 mRNA level in 293T cells (a) or 293T cells stably expressing control or XBP1 shRNAs (b) treated with tunicamycin or thapsigargin for 16 h. (c) RT-qPCR analysis of ASB11 mRNA expression in 293T cells transfected with control vector or XBP1s. (d) Schematic representation of the 5′-regulatory region of ASB11 gene, the luciferase reporters and the ChIP primers used in this study. (e, g) Luciferase reporter assay of 293T cells transfected with control or XBP1s expression construct together with the indicated reporter constructs. (f, k) qChIP assays in 293T cells (f) or 293T derivatives (k) treated with 10 μg/ml tunicamycin for 16 h using control IgG or XBP1s antibody for immunoprecipitation and indicated sets of primers for qPCR. […] P values are determined by t-test (a, b right panel, c, e) or 1-way ANOVA with Tukey's post test (b left panel, f, g, i, j, k). **P<0.01; ***P<0.001.
Total mRNA was extracted from cells using TRIZOL reagent (Invitrogen), and equal amounts of RNA were reverse transcribed to cDNA using the iScript™ cDNA Synthesis Kit (Bio-Rad). Quantitative real-time PCR was performed using the Power SYBR Green PCR Master kit (Applied Biosystems). […]

BIK [5] = assay: Western blot analysis of BIK levels in 293T cells; type: cell-based; details: multiple cell lines; 10 μg/ml tunicamycin or 200 nM thapsigargin, 16 h; FIG. 4a
Description: FIG. 2. […] (d) Western blot analysis of BIK levels in indicated cells stably expressing control or ASB11 shRNAs.
as §3

293T cells = assay: ELISA assay of cell apoptosis (Cell Death ELISA) in 293T cells; type: cell-based; details: control 293T cells, early time point (12 h) after tunicamycin; FIG. 6e
Description: FIG. 6. Regulation of ASB11-mediated BIK ubiquitination influences on cell life-death decision under ER stress and DNA damage. (a, b) ELISA assay of cell apoptosis (a) and Western blot analysis of active caspase 3 and cleaved PARP (b) in HCT116 p53^+/+ cells stably expressing indicated ASB11 constructs and treated with 3 μg/ml doxorubicin for 24 h. (c, d) ELISA assay of cell apoptosis (c) and Western blot analysis of active caspase 3 and cleaved PARP (d) in HCT116 p53^+/+ cells transiently transfected with ASB11 and/or BIK and treated with 3 μg/ml doxorubicin for 24 h. (e, f) ELISA assay for cell apoptosis (e) and Western blot analysis of active caspase 3 and cleaved PARP (f) in 293T cells stably expressing indicated shRNAs and treated with […] tunicamycin for 12 h. The knockdown efficiencies of various shRNAs are shown on the bottom. (g) Western blot analysis of BIK level in 293T cells transiently transfected with indicated BIK constructs and treated with 10 μg/ml tunicamycin for 24 h. The equal expression of BIK and BIK(2KR) in untreated cells (by adjusting the amount of plasmid used for transfection) is shown. […]
Apoptosis was analyzed as previously described. […] Cells were harvested and DNA fragmentation was measured by Cell Death ELISA Kit (Roche).

BIK [6] = assay: Cycloheximide-chase analysis of BIK turnover in 293T cells; type: cell-based; details: 10 μg/ml tunicamycin 12 h then 50 μg/ml cycloheximide, FIG. 4b
Description: FIG. 4. ER stress stimulates BIK ubiquitination and degradation through ASB11 and p97. (a) Western blot analysis of BIK and ASB11 levels in 293T cells treated with 10 μg/ml tunicamycin or 200 nM of thapsigargin for 16 h. (b) Western blot analysis of BIK levels in 293T cells treated with 10 μg/ml tunicamycin for 12 h and then with 50 μg/ml cycloheximide for indicated time periods. The relative amounts of BIK are indicated on the bottom. (c, e) Analysis of endogenous (c) or exogenous (e) BIK ubiquitination in 293T cells (c) or 293T derivatives as in FIG. 2d (e) transfected with indicated constructs and treated with tunicamycin. (d) Western blot analysis of 293T derivatives as in FIG. 2d treated with 10 μg/ml tunicamycin for 16 h. (f) Western blot analysis of BIK levels in 293T derivatives co-treated with 10 μg/ml tunicamycin and MG132 for 16 h. (g) Western blot analysis of BIK expression in 293T cells co-treated with tunicamycin and 10 μM CB-5083 for 16 h. (h, i) Western blot analysis of BIK expression in 293T cells stably expressing indicated shRNAs and treated with 10 μg/ml tunicamycin for 16 h. The knockdown efficiency of each shRNA is shown on the right. (j) Immunoprecipitation analysis of p97 interaction with ubiquitinated BIK in 293T cells treated with 10 μg/ml tunicamycin for 16 h.

p97 / ubiquitinated BIK = assay: Immunoprecipitation analysis of p97 interaction with ubiquitinated BIK; type: cell-based; details: 293T cells, 10 μg/ml tunicamycin, 16 h
Description: as §4, with “h.” for “h. (h, i) Western blot analysis of BIK expression in 293T cells stably expressing indicated shRNAs and treated with 10 μg/ml tunicamycin for 16 h. The knockdown efficiency of each shRNA is shown on the right. (j) Immunoprecipitation analysis of p97 interaction with ubiquitinated BIK in 293T cells treated with 10 μg/ml tunicamycin for 16 h.”
as §5

| Compound | anti-tumor effect of combined administration compared to BIKDD alone ([1]; VISA-BIKDD 0.75 mg/kg intratumoral every 7 days plus STF-083010 40 mg/kg i.p. every 3-4 days, FIG. 7e) | body weights of mice ([1]; VISA-BIKDD gene therapy model) | level of cleaved PARP, combinatory treatment (cleaved PARP) | tumor growth, combined treatment with BIKDD ([2]; BIKDD-expressing Hs578T cells plus STF-083010 40 mg/kg i.p. every 3 days, FIG. 7d) | body weights of mice ([2]; BIKDD-expressing cell model) | tumor growth, agent alone ([2]; BIKDD-expressing cells or STF-083010 40 mg/kg i.p. every 3 days, alone, FIG. 7d) | BIKDD levels (BIKDD) | killing of TNBC cells in combination with BIKDD ([3]; CMV-BIKDD transfected Hs578T, MDA-MB157, MDA-MB468, FIG. 7a) | killing effect of co-administration with VISA-BIKDD ([3]; VISA-BIKDD transfected TNBC cells, FIG. 7c) | ubiquitination of endogenous BIK (BIK [4]) | ASB11 protein expression (ASB11) | expression of ASB11 mRNA (ASB11 mRNA) | BIK protein level (BIK [5]) | apoptosis induction (293T cells) | turnover of endogenous BIK (BIK [6]) | interaction of p97 with ubiquitinated BIK (p97 / ubiquitinated BIK) |
| --- | --- | --- | --- | --- | --- | --- | --- | --- | --- | --- | --- | --- | --- | --- | --- | --- |
| O=S(=O)(N=Cc1c(O)ccc2ccccc12)c1cccs1 [STF-083010, N-[(2-Hydroxy-1-naphthalenyl)methylene]-2-thiophenesulfonamide] | significant enhancement | not altered | increased | greatly suppressed | not altered | modest reduction | elevated | synergized | synergistic |  |  |  |  |  |  |  |
| tunicamycin |  |  |  |  |  |  |  |  |  | increased | elevated | upregulated | reduced | did not show sign of apoptosis induction | increased | increased |
